This is an account of results in patent publication US8460669B2, “Compositions and methods for identifying response targets and treating flavivirus infection responses” (Academia Sinica, priority 2005, dated 2013).

The target of experiment [1] is T1, TLR4.Fc (Homo sapiens, UniProt O00206).
T1 construct: The extracellular domains of several innate immunity receptors from immune cells were cloned by reverse-transcription polymerase chain reaction (RT-PCR); made in house; host or cells: 293-F (FreeStyle 293) cells
T1 sequence (O00206 24-631 limits assumed): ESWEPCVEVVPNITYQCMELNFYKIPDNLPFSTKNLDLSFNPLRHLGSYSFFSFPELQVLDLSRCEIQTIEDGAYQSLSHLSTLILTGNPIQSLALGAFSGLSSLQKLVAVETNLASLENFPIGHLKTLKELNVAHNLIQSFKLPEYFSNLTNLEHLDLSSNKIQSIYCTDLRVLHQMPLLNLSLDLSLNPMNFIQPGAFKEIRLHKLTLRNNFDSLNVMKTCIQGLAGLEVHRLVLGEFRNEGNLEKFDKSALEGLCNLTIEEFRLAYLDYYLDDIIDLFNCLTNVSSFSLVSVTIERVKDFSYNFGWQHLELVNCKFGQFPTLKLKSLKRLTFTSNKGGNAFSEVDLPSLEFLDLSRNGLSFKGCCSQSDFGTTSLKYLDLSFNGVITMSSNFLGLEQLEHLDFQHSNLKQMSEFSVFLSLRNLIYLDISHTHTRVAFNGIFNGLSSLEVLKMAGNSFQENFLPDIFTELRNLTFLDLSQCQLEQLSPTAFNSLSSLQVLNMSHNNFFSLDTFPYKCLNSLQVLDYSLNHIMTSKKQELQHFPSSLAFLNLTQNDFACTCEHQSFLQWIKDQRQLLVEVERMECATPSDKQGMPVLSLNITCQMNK
Nature of the experiment: Sugar competition EIA, TLR4.Fc binding to GLPS-F3. To be noted: sugar 1 mg/ml. The protocol:
(§1) The interaction between GLPS-F3 and receptor.Fc was then tested. Unbiotinylated GLPS-F3 was immobilized at 100 ng/well as described above, and 100 μL receptor.Fc fusion protein (1 μg/ml in 2 mM MgCl2/2 mM CaCl2/1% BSA/TBST) was added into each well and incubated for 1 hour at room temperature. After washing with TBST, wells were incubated with peroxidase-conjugated goat anti-human IgG Ab (1:5000 dilution, Jackson ImmunoResearch Laboratories) in blocking buffer at room temperature for 30 min. Wells were incubated with 100 μL TMB substrate for 15 min after TBST washing and read at 450 nm in a Fusion plate reader (Perkin Elmer). The results were normalized with respect to Fc.Dectin-1 binding (Dectin-1 is a known lectin receptor that binds to β-1,3-glucan which is the backbone found in GLPS-F3). FIG. 6B depicts in graphical form the affinity of each receptor for GLPS-F3 relative to Dectin-1. […] There was also weaker but positive GLPS-F3 binding ability (25-50% binding intensity compared to Fc.dectin-1) found in Fc.NKG2D, Fc.MINCLE, Fc.mKCR, DCAL1.Fc, DEC205.Fc, Endo180.Fc and NKp30(NCR3).Fc.
(§2) To understand the interaction of GLPS-F3 with specific innate immunity receptors, the polysaccharides mannan and β-glucan and the monosaccharides D-mannose (Man), D-glucose (Glc), N-acetyl-glucosamine (GlcNAc), D-galactose (Gal), N-acetyl-galactosamine (GalNAc), L-fucose (Fuc) and sialic acid, were used in a competition assay. […] The assays were carried out as in Example 9, with the addition of 1 mg/ml of each polysaccharide or monosaccharide.

Experiment [2] addresses T2, MMR.Fc (Homo sapiens, UniProt P22897).
T2 construct: The extracellular domains of lectin receptors, TREMs and TLTs were cloned by the reverse-transcriptase polymerase chain reaction (RT-PCR); made in house; host or cells: 293-F (FreeStyle 293) cells
T2 sequence (P22897 19-1389 limits assumed): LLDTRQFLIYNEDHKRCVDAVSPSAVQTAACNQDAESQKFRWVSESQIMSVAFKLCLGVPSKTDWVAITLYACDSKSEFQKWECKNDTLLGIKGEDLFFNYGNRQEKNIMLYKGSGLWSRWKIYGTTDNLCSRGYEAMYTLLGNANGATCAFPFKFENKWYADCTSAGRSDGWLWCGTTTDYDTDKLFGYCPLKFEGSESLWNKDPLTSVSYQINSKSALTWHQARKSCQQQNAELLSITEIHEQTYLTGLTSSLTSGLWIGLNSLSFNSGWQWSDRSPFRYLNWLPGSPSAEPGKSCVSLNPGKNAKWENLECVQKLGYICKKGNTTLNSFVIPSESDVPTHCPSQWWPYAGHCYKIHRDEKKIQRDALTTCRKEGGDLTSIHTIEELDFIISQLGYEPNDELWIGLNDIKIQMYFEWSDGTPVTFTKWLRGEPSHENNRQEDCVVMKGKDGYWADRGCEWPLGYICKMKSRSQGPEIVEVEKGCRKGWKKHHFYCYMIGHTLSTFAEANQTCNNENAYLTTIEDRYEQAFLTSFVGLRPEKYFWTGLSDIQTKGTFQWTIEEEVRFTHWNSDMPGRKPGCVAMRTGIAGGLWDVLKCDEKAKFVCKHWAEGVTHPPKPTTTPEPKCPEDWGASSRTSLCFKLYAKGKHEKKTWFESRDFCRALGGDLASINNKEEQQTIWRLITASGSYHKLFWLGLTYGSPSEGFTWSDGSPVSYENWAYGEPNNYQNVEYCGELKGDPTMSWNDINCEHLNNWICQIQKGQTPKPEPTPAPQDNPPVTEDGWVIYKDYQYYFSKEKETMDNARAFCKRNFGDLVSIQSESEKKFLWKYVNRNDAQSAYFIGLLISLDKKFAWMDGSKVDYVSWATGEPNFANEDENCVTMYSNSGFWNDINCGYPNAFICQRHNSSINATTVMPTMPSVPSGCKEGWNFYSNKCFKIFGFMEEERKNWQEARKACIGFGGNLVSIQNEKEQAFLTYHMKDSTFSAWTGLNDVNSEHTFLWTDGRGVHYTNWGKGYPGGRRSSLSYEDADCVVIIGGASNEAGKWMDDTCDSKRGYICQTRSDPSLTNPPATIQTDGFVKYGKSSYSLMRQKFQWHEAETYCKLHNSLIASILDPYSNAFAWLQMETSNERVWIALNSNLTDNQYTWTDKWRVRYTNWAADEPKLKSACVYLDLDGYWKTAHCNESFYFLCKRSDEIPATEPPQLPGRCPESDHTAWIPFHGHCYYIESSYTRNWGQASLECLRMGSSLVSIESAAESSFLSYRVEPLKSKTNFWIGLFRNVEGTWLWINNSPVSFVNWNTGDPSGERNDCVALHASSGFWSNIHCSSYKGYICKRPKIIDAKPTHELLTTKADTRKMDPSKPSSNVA
Nature of the experiment: Sugar competition EIA, MMR.Fc binding to GLPS-F3. To be noted: sugar 1 mg/ml. The protocol:
as §1, §2

Experiment [3] concerns the target T3, DC-SIGN (Homo sapiens, UniProt Q9NNX6).
T3 construct: expressed in transfected cells; host or cells: 293T cells
T3 sequence (Q9NNX6 1-404): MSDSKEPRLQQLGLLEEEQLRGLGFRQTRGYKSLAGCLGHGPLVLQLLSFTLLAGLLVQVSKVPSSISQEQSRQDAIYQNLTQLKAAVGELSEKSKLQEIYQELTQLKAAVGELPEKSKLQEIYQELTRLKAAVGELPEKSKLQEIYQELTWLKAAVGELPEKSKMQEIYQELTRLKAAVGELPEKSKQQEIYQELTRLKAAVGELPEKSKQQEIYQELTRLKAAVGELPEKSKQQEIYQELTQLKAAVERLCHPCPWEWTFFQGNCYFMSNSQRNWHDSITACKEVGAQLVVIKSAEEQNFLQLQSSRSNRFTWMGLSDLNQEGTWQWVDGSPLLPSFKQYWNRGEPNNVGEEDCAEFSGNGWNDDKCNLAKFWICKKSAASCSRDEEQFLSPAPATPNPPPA
Nature of the experiment: Sugar competition, biotinylated DV binding to DC-SIGN-transfected 293T cells. It counts as cell-based. To be noted: flow cytometry. The method, then:
In FIG. 16b, complexes of DV (5×10^6 PFU) with receptor.Fc (5 μg) were immunoprecipitated and detected on westerns with mAb to DV envelope (E) protein. […] FIGS. 16d and 16e show sugar competition assays wherein both DC-SIGN (CLEC4L) and DVLR1/CLEC5A increase DV binding to human 293T cells (FIG. 16d), while addition of sugars inhibits biotinylated DV binding to DC-SIGN- (left panel) or DLVR1/CLEC5A- (right panel) transfected 293T cells in a dose-dependent manner as determined by flow cytometry (FIG. 16e). According to FIG. 16e, MFI represents mean fluorescence intensity. Units (U) for monosaccharide (mannose and fucose) and polysaccharide (mannan) are mM and mg/ml, respectively. […] Data are expressed as the mean±s.d. of three independent experiments. Two-tailed, Student's t-tests were performed.
There are two conserved N-linked glycosylation sites at Asn-67 and Asn-153 of E protein (Pokidysheva, E. et al., Cell 124:485-93 (2006)), and the attached glycans (with terminal fucose and mannose) have been implicated in cellular attachment and viral entry (Modis, Y. et al., J. Virol. 79:1223-1231 (2005)). To investigate the participation of glycans in the association of DVLR1/CLEC5A with DV, virions were incubated with fucose, mannose, or mannan; where the last two sugars are the ligands for DC-SIGN (Mitchell et al., J. Biol. Chem. 276: 28939-28945 ([…])).
(In general: A flow cytometer gives signals particle by particle.)

The target of experiment [4] is T4, DC-SIGN (Homo sapiens, UniProt Q9NNX6).
T4 construct: The extracellular domains of lectin receptors, TREMs and TLTs were cloned by the reverse-transcriptase polymerase chain reaction (RT-PCR); made in house; host or cells: 293-F (FreeStyle 293) cells
T4 sequence (Q9NNX6 59-404 limits assumed): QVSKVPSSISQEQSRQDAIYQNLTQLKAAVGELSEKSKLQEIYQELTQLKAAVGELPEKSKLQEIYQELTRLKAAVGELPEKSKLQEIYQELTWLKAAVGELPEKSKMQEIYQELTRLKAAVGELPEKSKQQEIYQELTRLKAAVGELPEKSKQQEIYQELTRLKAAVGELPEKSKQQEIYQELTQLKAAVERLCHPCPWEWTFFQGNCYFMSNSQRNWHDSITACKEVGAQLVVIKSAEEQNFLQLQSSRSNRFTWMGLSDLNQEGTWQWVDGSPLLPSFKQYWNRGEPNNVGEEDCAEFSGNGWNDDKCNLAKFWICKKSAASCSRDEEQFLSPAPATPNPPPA
In words: Sugar competition EIA, Fc.DC-SIGN binding to GLPS-F3. Particulars: sugar 1 mg/ml. The protocol:
as §1, §2

For experiment [5], the target named is T5, Langerin (Homo sapiens, UniProt Q9UJ71).
T5 construct: The extracellular domains of lectin receptors, TREMs and TLTs were cloned by the reverse-transcriptase polymerase chain reaction (RT-PCR); made in house; host or cells: 293-F (FreeStyle 293) cells
T5 sequence (Q9UJ71 65-328 limits assumed): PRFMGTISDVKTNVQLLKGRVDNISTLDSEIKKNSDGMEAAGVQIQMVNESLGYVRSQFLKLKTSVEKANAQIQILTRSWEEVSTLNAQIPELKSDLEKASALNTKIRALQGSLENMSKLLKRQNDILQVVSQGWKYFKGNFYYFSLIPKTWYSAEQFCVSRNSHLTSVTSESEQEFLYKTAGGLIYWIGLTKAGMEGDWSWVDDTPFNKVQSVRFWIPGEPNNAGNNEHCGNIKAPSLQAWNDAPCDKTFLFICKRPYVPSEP
In words: Sugar competition EIA, Fc.Langerin binding to GLPS-F3. Particulars: sugar 1 mg/ml. The method, then:
as §1, §2

In experiment [6] the test system is JEV. In words: ELISA of DVLR1/CLEC5A.Fc interaction with JEV. Type of experiment: binding, Japanese encephamyelitis virus. To be noted: 1 μg; JEV 5×10^6 PFU. The method, then:
Like with DV, JEV follows a similar virus infection response pattern, which is believed to be the same or similar in all flaviviruses. […] (1 μg), with JEV and DV (5×10^6 PFU), respectively, were determined by ELISA. DV interacts with human DVLR1/CLEC5A (187 amino acid in length) SEQ ID NO: 72, but not the alternatively spliced form sDVLR1/CLEC5A (aa 43-65 is deleted). SEQ ID NO: 73. […] DAP12 in DV-infected macrophages were precipitated by anti-DAP12 mAb, blotted to nitrocellulose paper after fractionation on SDS-PAGE, followed by incubation with antibodies against phosphotyrosine and DAP12, respectively. JEV-induced DAP12 phosphorylation (m.o.i.=5) is inhibited by pLL3.7/DVLR1/CLEC5A. […] JEV-induced TNF-α secretion is inhibited by […] mAb (right). Data are expressed as the mean±s.d. of three independent experiments.

For experiment [7], the system named is Dengue virus. Nature of the experiment: ELISA of receptor.Fc interaction with Dengue virus. Particulars: receptor.Fc 1 μg; DV 5×10^6. It counts as binding. The protocol: One μg of each receptor.Fc fusion protein was coated onto microtiter plates overnight at 4° C. DV (5×10^6 particles) of strain 16681 (a DEN2 strain) in binding buffer (1% BSA, 2 mM CaCl2, 2 mM MgCl2, 50 mM Tris-HCl pH 7.5, 150 mM NaCl) was then added to the plates and the plates were incubated for 2 hours. After washing non-bound virus, a biotinylated anti-DEN2 envelope protein antibody (Wu et al., J Virol, 2002. 76(8): p. 3596-604) was applied to bind to the virus for 1 hour. Diluted horseradish peroxidase-conjugated streptavidin was then added to the plates, followed by a 1 hour incubation. TMB substrate was then added and the plates were read using an ELISA reader at OD450 nm.
The microtiter plate assay was repeated in the presence of EDTA (10 mM) to chelate Ca^++ cations.
The microtiter plate assay was also repeated for DVLR1/CLEC5A.Fc fusion protein with DV particles (5×10^6) that had been 1) preincubated with 500 U of the glycosidase PNGaseF (New England Biolabs, Inc.) overnight at 37° C.; or 2) treated with dithiothreitol (DTTI) (0.1M); or 3) incubated at 95° C. for 5 minutes; or 4) UV irradiated for 5 minutes. The results are shown in FIG. 8D (asterisks indicate where the binding affinity of DVLR1/CLEC5A.Fc fusion protein is altered by modification of the virus relative to non-treated virus; ** p<0.01, *** p<0.001, Student's t test). […]
(In general: An ELISA detects its analyte on a solid surface through an enzyme-linked reagent.)

In the case of `O=C[C@@H](O)[C@@H](O)[C@H](O)[C@H](O)CO` [Man, D-mannose], the “Percentage of binding of TLR4.Fc to GLPS-F3 relative to binding in absence of sugar competitor” value in experiment [1] is given as 89 ± 2.6%. Moreover, in experiment [2], the “inhibition of interaction between GLPS-F3 and MMR.Fc” value turned out to be 87%. Further, in experiment [3], the “inhibition of the DC-SIGN-DV interaction” value is recorded as “dose-dependent inhibition”. Further, in experiment [4], the “inhibition of binding of Fc.DC-SIGN to GLPS-F3” value amounted to 72%. For the same molecule, the “inhibition of interaction between Fc.Langerin and GLPS-F3” value in experiment [5] was 26%.

B1: sDVLR1/CLEC5A: alternatively spliced form of human DVLR1/CLEC5A (aa 43-65 deleted), SEQ ID NO: 73 (protein)
chain: MNWHMIISGLIVVVLKVVGMTLFLLYFPQIFNKSNDGFTTTRSYGTVCPKDWEFYQARCFFLSTSESSWNESRDFCKGKGSTLAIVNTPEKLFLQDITDAEKYFIGLIYHREEKRWRWINNSVFNGNVTNQNQNFNCATIGLTKTFDAASCDISYRRICEKNAK
modifications: Human
Turning to B1, the “interaction with JEV (ELISA)” value in experiment [6] is recorded as “only interacts”. Also, the “interaction of receptor.Fc with Dengue virus (ELISA)” value in experiment [7] is listed as “not”.
